Data taken from PubChem BioAssay (NCI).
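Cultured in 96-well plates, cells were exposed to test compound for 48 hours across five concentrations. TGI is the concentration that stops growth completely.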

Key:
Assay in all cases: inhibition of tumour cell growth, NCI panel, 48 h
[1] = system: M14 melanoma
[2] = system: OVCAR-3 ovarian
[3] = system: SF-539 CNS
[4] = system: MDA-MB-435
[5] = system: SN12C renal
[6] = system: NCI/ADR-RES ovarian
[7] = system: HCT-15 colon
[8] = system: CAKI-1 renal
[9] = system: SNB-19 CNS

SMILES	TGI [1]	TGI [2]	TGI [3]	TGI [4]	TGI [5]	TGI [6]	TGI [7]	TGI [8]	TGI [9]
ClC(Cl)(Cl)C1CCOC1n1nc2ccccc2n1 (stereo unspecified)	> 100 µM	> 100 µM	> 100 µM	> 100 µM	> 100 µM	> 100 µM	> 100 µM	> 100 µM	–
CCOc1ccc2ccccc2c1NC1=NCCO1	> 100 µM	–	> 100 µM	> 100 µM	> 100 µM	> 100 µM	> 100 µM	–	> 100 µM
CNNC1=NS(=O)(=O)c2cc(C)c(Cl)cc2S1	> 10 µM	> 10 µM	> 10 µM	> 10 µM	> 10 µM	> 10 µM	> 10 µM	> 10 µM	> 10 µM
CN(C)CCOc1ccc(I)cc1Cc1ccccc1	6 µM	26.7 µM	27.8 µM	15.4 µM	25 µM	29.8 µM	25.1 µM	–	28 µM
CC12CC3CC/C(=N\O)C(C1)C3(N1CCOCC1)C/C2=N/O (stereo unspecified)	> 100 µM	> 100 µM	> 100 µM	> 100 µM	> 100 µM	> 100 µM	> 100 µM	> 100 µM	> 100 µM
CSCCC(NCc1c(O)ccc2ccc(=O)oc12)C(=O)O (stereo unspecified)	> 100 µM	> 100 µM	> 100 µM	> 100 µM	> 100 µM	> 100 µM	> 100 µM	> 100 µM	> 100 µM
O=[N+]([O-])c1ccc(Cl)cc1-n1nc(-c2ccccc2)cc1-c1ccccc1	> 100 µM	> 100 µM	> 100 µM	> 100 µM	> 100 µM	> 100 µM	> 100 µM	> 100 µM	> 100 µM
COC(=O)c1ccc2c(c1)CC1(C2)Cc2cc3c(c(C(=O)OC)c2C1)CCCC3 (stereo unspecified)	–	> 100 µM	> 100 µM	> 100 µM	> 100 µM	> 100 µM	> 100 µM	> 100 µM	–
CC(C)Nc1[nH]c(C(=O)c2ccccc2)c(N)c1C(=S)Nc1ccccc1	48.5 µM	> 100 µM	> 100 µM	99.1 µM	> 100 µM	> 100 µM	> 100 µM	> 100 µM	> 100 µM
Cc1cccc(/C=N/NC(=S)NCc2ccccn2)n1	42.6 µM	> 100 µM	67.9 µM	> 100 µM	> 100 µM	> 75.4 µM	> 100 µM	> 100 µM	> 100 µM
O/N=c1/ccn(O)c2ccccc12	6.87 µM	6.59 µM	2.41 µM	17.4 µM	5.7 µM	4.7 µM	5.21 µM	5.99 µM	14.1 µM
CC(C)C1CC=NN1C(=O)OC(C)(C)C (stereo unspecified)	> 100 µM	> 100 µM	> 100 µM	> 100 µM	> 100 µM	> 100 µM	> 100 µM	> 100 µM	–
CC(O)c1c2c(cc3c1CC1(C3)Cc3cc4c(c(C(C)O)c3C1)CCC4)CCC2 (stereo unspecified)	35.2 µM	29.4 µM	46.4 µM	31.9 µM	32 µM	70.4 µM	41.1 µM	–	–
O=C(O)c1cccc(S(=O)(=O)NN2C(=O)CSC2c2ccccc2)c1 (stereo unspecified)	> 100 µM	> 100 µM	> 100 µM	> 100 µM	> 100 µM	–	> 100 µM	> 100 µM	> 100 µM
Cc1cn(CC2=NCCN2)c(=O)[nH]c1=O	> 100 µM	–	–	> 100 µM	> 100 µM	> 100 µM	> 100 µM	> 100 µM	> 100 µM
CC(=O)Oc1c(C)cc(-c2cc(C)c(OC(C)=O)c(C)c2)cc1C	> 100 µM	> 100 µM	–	10.8 µM	> 100 µM	> 100 µM	> 100 µM	> 100 µM	> 100 µM
O=c1[nH]c2cc(C(F)(F)F)ccc2nc1Cc1ccccc1	> 100 µM	–	> 100 µM	> 100 µM	–	> 100 µM	> 100 µM	> 100 µM	> 100 µM
Cc1ccc(/C=C2\CN(C)CC3C(c4ccc(C)cc4)=C(C#N)C(=O)NC23)cc1 (stereo unspecified)	> 50 µM	> 50 µM	–	> 50 µM	> 50 µM	> 50 µM	> 50 µM	> 50 µM	> 50 µM
CC(=O)Oc1ccccc1[C@H]1CC(=O)C[C@H](c2ccccc2OC(C)=O)C12C(=O)c1ccccc1C2=O	70.9 µM	89.2 µM	–	31.6 µM	> 100 µM	> 100 µM	> 100 µM	> 100 µM	> 100 µM
O=C(O)CCC(NC(=O)c1ccc(Nc2nc3ccccc3nc2C(=O)O)cc1)C(=O)O (stereo unspecified)	> 100 µM	> 100 µM	> 100 µM	> 100 µM	> 100 µM	> 100 µM	–	> 100 µM	> 100 µM
COCCOCN(C(=O)C1=CCC2(CC1)OCCO2)c1ccccc1I	> 50 µM	> 50 µM	–	> 50 µM	> 50 µM	> 50 µM	> 50 µM	> 50 µM	> 50 µM
COc1cc([C@@H]2c3cc4c(cc3[C@H](OC3OC5COC(C(C)C)OC5C(O)C3O)C3COC(=O)[C@@H]32)OCO4)cc(OC)c1O (stereo partly specified)	24.3 µM	24.4 µM	8.18 µM	19.2 µM	–	> 100 µM	25.9 µM	19.2 µM	30.1 µM
COc1ccc(NC(=O)CC(=O)n2nc(C)c(N=Nc3ccc(C)c(C)c3)c2C)cc1	> 100 µM	> 100 µM	> 100 µM	> 100 µM	> 100 µM	> 100 µM	–	> 100 µM	> 100 µM
Cc1cc(S(N)(=O)=O)c(SCc2nc(N)nc(N(C)C)n2)cc1Cl	> 10 µM	> 10 µM	> 10 µM	–	> 10 µM	> 10 µM	> 10 µM	> 10 µM	> 10 µM
S=C(NNC1=NCCCN1)Nc1ccccc1	–	> 100 µM	> 100 µM	> 100 µM	–	> 100 µM	> 100 µM	> 100 µM	> 100 µM
